Key:
Assay type in all cases: biochemical
Conditions in all cases: 10 nM JAK enzyme, 800 nM Abl peptide, room temperature 75 min
[1] = biological target: JAK1 (Homo sapiens, UniProt P23458); test: JAK assay (KINASE-GLO luminescent kinase assay), JAK1
Outline: (§1)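 The 2× mix gave 10 nM kinase, 800 nM Abl peptide and 2 µM DTT, and ATP was added as a 4× stock (2 µM), in HEPES pH 7.5 buffer. Compounds ran as an 11-point series, 100 µM–10 pM final in 2.5% DMSO, for 75 min at RT. Remaining ATP was read by luminescence against DMSO control, and 4-parameter IC50s were converted to Ki by Cheng-Prusoff.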

[2] = biological target: JAK2 (Homo sapiens, UniProt O60674); test: JAK assay (KINASE-GLO luminescent kinase assay), JAK2
JAK2, sequence (O60674 whole entry): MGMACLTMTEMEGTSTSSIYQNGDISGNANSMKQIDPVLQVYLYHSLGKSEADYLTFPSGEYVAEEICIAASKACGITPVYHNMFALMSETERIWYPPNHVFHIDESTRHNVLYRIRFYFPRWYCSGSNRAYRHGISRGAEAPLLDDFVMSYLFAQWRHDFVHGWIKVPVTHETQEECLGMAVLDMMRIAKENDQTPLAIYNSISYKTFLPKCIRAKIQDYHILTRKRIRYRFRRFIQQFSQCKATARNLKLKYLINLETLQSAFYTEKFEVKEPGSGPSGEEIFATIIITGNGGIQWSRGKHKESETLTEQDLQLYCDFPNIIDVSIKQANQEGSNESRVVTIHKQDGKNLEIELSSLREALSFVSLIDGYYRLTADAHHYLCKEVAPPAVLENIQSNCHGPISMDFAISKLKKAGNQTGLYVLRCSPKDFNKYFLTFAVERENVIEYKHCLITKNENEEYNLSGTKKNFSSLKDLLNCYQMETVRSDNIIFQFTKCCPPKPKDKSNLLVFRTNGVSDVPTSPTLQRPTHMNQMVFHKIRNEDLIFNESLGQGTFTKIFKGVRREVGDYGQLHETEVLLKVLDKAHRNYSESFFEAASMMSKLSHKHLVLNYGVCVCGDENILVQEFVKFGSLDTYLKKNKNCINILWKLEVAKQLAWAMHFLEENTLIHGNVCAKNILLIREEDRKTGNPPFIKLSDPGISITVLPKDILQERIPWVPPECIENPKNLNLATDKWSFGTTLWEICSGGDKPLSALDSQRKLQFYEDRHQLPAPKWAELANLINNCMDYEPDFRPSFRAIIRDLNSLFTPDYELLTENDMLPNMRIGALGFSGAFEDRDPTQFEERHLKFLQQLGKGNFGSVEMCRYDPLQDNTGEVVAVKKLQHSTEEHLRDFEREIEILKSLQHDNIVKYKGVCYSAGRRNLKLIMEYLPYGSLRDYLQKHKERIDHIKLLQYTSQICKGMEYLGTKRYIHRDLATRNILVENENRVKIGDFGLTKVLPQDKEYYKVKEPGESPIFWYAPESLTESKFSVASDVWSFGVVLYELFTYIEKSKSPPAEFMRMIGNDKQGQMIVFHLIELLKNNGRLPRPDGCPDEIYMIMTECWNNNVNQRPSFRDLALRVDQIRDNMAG
Outline: as §1

[3] = biological target: T1, JAK3 (Homo sapiens, UniProt P52333); test: JAK assay (KINASE-GLO luminescent kinase assay), JAK3
T1 sequence (P52333 1-1124): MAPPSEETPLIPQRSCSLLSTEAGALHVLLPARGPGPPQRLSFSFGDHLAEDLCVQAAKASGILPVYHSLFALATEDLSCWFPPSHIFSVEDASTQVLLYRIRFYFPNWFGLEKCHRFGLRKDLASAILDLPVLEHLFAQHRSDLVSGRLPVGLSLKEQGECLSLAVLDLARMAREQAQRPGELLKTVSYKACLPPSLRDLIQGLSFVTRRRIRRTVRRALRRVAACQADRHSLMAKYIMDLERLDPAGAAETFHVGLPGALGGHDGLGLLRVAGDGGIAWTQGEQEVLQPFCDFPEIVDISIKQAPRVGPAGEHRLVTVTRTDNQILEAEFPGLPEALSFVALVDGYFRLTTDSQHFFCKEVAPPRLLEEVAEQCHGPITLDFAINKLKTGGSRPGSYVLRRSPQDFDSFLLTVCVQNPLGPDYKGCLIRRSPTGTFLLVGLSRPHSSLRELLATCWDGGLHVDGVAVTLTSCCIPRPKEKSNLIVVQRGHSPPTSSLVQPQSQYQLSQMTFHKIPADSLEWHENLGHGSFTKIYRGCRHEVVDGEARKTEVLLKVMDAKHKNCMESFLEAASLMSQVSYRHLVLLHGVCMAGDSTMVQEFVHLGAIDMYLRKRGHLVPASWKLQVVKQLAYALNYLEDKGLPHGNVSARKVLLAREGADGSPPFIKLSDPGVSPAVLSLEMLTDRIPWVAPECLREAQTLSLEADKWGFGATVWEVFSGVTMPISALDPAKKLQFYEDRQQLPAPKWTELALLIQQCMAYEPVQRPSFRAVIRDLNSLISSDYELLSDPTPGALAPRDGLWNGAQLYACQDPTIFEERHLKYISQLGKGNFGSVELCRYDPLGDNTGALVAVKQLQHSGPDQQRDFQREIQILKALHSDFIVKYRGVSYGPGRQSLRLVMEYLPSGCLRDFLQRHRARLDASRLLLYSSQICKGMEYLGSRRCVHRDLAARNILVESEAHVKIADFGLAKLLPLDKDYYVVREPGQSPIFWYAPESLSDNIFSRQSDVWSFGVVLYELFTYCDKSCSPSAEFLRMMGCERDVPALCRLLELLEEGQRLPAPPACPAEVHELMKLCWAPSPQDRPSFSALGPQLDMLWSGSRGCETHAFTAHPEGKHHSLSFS
Outline: as §1

[4] = biological target: TYK2 (Homo sapiens, UniProt P29597); test: JAK assay (KINASE-GLO luminescent kinase assay), TYK2
TYK2, sequence (P29597 whole entry): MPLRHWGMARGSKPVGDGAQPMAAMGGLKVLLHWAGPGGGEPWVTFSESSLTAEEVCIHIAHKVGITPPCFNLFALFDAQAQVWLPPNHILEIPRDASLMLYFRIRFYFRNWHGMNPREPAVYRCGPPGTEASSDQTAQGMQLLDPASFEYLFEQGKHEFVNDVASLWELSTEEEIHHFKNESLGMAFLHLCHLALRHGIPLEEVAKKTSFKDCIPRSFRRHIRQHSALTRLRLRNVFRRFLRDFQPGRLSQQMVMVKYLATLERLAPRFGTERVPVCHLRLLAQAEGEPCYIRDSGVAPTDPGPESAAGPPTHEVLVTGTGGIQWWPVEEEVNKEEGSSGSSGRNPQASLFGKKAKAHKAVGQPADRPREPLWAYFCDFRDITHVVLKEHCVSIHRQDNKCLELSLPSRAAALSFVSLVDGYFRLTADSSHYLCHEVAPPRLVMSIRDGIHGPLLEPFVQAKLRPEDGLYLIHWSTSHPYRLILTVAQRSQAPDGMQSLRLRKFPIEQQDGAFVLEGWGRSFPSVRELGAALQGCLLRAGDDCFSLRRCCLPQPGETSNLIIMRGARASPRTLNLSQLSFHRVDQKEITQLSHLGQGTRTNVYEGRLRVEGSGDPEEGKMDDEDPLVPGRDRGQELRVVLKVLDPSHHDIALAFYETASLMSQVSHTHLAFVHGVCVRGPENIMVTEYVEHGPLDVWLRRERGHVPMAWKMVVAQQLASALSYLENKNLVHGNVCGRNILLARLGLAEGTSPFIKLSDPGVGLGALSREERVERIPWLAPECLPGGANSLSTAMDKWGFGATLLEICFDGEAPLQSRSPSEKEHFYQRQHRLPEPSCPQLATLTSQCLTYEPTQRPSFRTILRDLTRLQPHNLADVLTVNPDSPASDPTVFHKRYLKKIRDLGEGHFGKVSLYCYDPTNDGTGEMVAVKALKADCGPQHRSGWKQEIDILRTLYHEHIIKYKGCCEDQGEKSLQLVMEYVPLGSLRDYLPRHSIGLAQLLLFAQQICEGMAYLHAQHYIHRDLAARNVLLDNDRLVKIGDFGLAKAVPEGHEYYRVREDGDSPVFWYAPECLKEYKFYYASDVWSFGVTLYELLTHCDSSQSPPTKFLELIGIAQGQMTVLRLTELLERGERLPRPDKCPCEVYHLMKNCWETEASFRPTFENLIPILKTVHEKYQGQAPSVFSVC

JAK1, sequence (P23458 whole entry): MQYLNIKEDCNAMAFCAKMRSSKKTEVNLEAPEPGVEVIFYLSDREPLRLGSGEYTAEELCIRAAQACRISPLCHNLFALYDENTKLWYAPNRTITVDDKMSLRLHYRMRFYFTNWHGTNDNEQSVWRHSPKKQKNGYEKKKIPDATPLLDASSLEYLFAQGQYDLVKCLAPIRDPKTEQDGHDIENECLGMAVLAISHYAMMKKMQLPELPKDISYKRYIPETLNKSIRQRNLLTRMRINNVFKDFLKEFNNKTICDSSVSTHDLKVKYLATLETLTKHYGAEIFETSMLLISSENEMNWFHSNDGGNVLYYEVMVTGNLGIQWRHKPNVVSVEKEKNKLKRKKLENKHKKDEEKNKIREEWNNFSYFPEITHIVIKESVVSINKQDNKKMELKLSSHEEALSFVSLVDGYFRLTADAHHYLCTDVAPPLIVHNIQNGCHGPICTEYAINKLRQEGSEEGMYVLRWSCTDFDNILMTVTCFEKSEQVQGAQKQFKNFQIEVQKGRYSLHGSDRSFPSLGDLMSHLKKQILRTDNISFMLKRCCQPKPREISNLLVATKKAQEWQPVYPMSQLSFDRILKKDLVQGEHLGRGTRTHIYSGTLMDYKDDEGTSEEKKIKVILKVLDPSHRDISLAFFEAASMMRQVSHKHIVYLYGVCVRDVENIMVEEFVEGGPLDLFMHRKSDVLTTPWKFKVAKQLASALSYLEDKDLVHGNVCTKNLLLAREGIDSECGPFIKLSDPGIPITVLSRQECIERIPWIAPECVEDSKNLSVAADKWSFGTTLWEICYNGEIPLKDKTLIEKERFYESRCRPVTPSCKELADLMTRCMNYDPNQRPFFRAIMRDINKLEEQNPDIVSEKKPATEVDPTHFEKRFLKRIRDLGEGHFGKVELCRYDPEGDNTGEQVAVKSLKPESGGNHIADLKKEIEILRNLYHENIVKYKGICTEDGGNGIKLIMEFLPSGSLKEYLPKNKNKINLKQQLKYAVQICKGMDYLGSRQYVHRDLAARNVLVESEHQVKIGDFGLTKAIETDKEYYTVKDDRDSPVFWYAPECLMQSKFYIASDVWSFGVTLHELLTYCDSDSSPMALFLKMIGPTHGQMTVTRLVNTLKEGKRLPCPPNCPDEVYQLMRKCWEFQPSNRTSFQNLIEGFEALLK

Row | SMILES | IC50 [1] [nM] | IC50 [2] [nM] | IC50 [3] [nM] | IC50 [4] [nM]
1 | Clc1cnc(NC23CC(C2)C3)nc1-c1cnn(Cc2cccs2)c1 [ClC1═C(N═C(NC23CC(C2)C3)N═C1)C4═C[N]] | > 50000 | > 50000 | < 100000 | > 50000
2 | Cc1cnc(Nc2ccc(C(=O)NCCN(C)C)cc2)nc1-c1cnn(CC2(CF)CC2)c1 [CN(C)CCNC(═O)C1═CC═C(NC2═NC] | < 100 | < 10 | < 100 | < 10
3 | Cc1cnc(NC2CCOCC2)nc1-c1cnn(CCC#N)c1 [CC1═C(N═C(NC2CCOCC2)N═C1)C3═C[N]] | < 100000 | < 100000 | > 50000 | > 50000
4 | Cc1cnc(Nc2cc(COC(=O)CCN3CCN(C)CC3)ns2)nc1-c1cnn(CC2(CF)CC2)c1 [CN1CCN(CC1)CCC(═O)OCC2═NSC] | < 100 | < 10 | < 10 | < 10
5 | N#CCC1(Cn2cc(-c3ccnc(Nc4ccns4)n3)cn2)CC1 [N#CCC1(CC1)C[N]2C═C(C═N2)C3═CC═NC] | < 100 | < 10 | < 100 | < 100
6 | Cc1cnc(Nc2cccc(CCO)c2)nc1-c1cnn(CC2(CF)CC2)c1 [CC1═C(N═C(NC2═CC(═CC═C2)CCO)N═C1)C3═C[N]] | < 10 | < 10 | < 10 | < 10
7 | Clc1cnc(Nc2cccc(CN3CCC3)c2)nc1 [ClC1═C(N═C(NC2═CC(═CC═C2)CN3CCC3)N═C1)] | < 100 | < 10 | < 10 | < 10
8 | Cc1cc(Nc2ncc(C)c(-c3cnn(CC4(CF)CCC4)c3)n2)sn1 [CC1═NSC(═C1)NC2═NC═C(C)C] | < 10 | < 10 | < 10 | < 10
9 | COCCOc1ccc(Nc2ncc(C)c(-c3cnn(CC4(CF)CC4)c3)n2)cc1 [COCCOC1═CC═C(NC2═NC(═C] | < 100 | < 10 | < 100 | < 100
10 | Cc1cnc(Nc2ccccn2)nc1-c1cnn(CC2(Cl)CC2)c1 [CC1═C(N═C(NC2═CC═CC═N2)N═C1)C3═C[N]] | < 100000 | < 1000 | < 100000 | < 100000
11 | Cc1cnc(Nc2ccc(S(C)(=O)=O)cc2)nc1-c1cnn(CC2(Cl)CC2)c1 [CC1═C(N═C(NC2═CC═C(C═C2)[S]] | < 100 | < 10 | < 10 | < 10
12 | Cc1cncc(Nc2ncc(C)c(-c3cnn(CC4(CF)CCC4)c3)n2)c1 [CC1═CN═CC(═C1)NC2═NC(═C] | < 100 | < 10 | < 100 | < 100
13 | OCC(O)c1cccc(Nc2ncc(Cl)c(-c3cnn(CC4(CF)CC4)c3)n2)c1 (stereo not drawn) [OCC(O)C1═CC═CC(═C1)NC2═NC(═C] | < 10 | < 10 | < 10 | < 10
14 | Cc1cnc(Nc2ccc(CNC(=O)OC(C)(C)C)cc2)nc1-c1cnn(CC2(CF)CC2)c1 [CC1═C(N═C(NC2═CC═C(CNC(═O)OC] | < 100 | < 10 | < 100 | < 100
15 | N#CCC1(Cn2cc(-c3nc(Nc4ccns4)ncc3C3CC3)cn2)CC1 [N#CCC1(CC1)C[N]2C═C(C═N2)C3═C] | < 100 | < 10 | < 100 | < 100
16 | N#CC1(Cn2cc(-c3nc(Nc4ccc(C(=O)O)nc4)ncc3Cl)cn2)CC1 [OC(═O)C1═NC═C(NC2═NC(═C] | < 100 | < 10 | < 1000 | < 100
17 | Cc1cnc(Nc2cnc(N3CCOCC3)nc2)nc1-c1cnn(CC2(CF)CC2)c1 [CC1═C(N═C(NC2═CN═C] | < 1000 | < 10 | < 100 | < 1000
18 | CS(=O)(=O)N(c1ncc(Cl)c(-c2cnn(CCC#N)c2)n1)S(C)(=O)=O [C[S](═O)(═O)N(C1═NC(═C] | > 50000 | < 100000 | > 50000 | > 50000
19 | Cc1ccc(Nc2ncc(C)c(-c3cnn(CC4(Cl)CC4)c3)n2)cc1S(C)(=O)=O [CC1═CC═C(NC2═NC(═C(C)C═N2)C3═C[N]] | < 100 | < 100 | < 100 | < 100
20 | Cc1cnc(NCCCN2CCOCC2)nc1-c1cnn(CCC#N)c1 [CC1═C(N═C(NCCCN2CCOCC2)N═C1)C3═C[N]] | > 50000 | < 100000 | > 50000 | < 100000
21 | COc1cnc(Nc2cc(COC(=O)c3ccccc3)ns2)nc1-c1cnn(CC2(CF)CC2)c1 [COC1═C(N═C(NC2═CC(═NS2)COC] | < 100 | < 10 | < 100 | < 100

More lines, now with the values ahead:

Row | IC50 [1] [nM] | IC50 [2] [nM] | IC50 [3] [nM] | IC50 [4] [nM] | SMILES
22 | < 100 | < 10 | < 100 | < 100 | Cc1cnc(Nc2ccc(CNC(=O)[C@H](C)N)cc2)nc1-c1cnn(CC2(CF)CC2)c1 [C[C@H](N)C(═O)NCC1═CC═C(NC2═NC]
23 | < 100 | < 10 | < 100 | < 10 | CC(=O)OCCc1ccc(Nc2ncc(Cl)c(-c3cnn(CCC#N)c3)n2)cc1 [CC(═O)OCCC1═CC═C(NC2═NC(═C]
24 | 157 | < 100 | < 10 | < 100 | CC(C)(C)OC(=O)NCc1cccc(Nc2ncc(Cl)c(-c3cnn(CC4(CF)CC4)c3)n2)c1 [CC(C)(C)OC(═O)NCC1═CC═CC]
25 | < 100 | < 10 | < 100 | < 10 | COc1cc(Nc2ncc(C)c(-c3cnn(CC4(CF)CC4)c3)n2)sn1 [COC1═NSC(═C1)NC2═NC(═C]
26 | < 1000 | < 10 | < 100 | < 1000 | CNC(=O)c1cccc(Nc2ncc(Cl)c(-c3cnn(CC4(NC)CC4)c3)n2)c1 [CNC(═O)C1═CC═CC(═C1)NC2═NC]
27 | < 100 | < 10 | < 10 | < 100 | Cn1cc(Nc2ncc(Cl)c(-c3cnn(CCC4CC4)c3)n2)cn1 [C[N]1C═C(NC2═NC(═C]
28 | < 1000 | < 10 | < 1000 | < 1000 | Cn1ccc(Nc2ncc(Cl)c(-c3cnn(CCC#N)c3)n2)n1 [C[N]1C═CC(═N1)NC2═NC(═C]
29 | < 1000 | < 10 | < 100 | < 1000 | FC(F)C1(Cn2cc(-c3nc(Nc4ccc5cnoc5c4)ncc3Cl)cn2)COC1 [FC(F)C1(COC1)C[N]2C═C(C═N2)C3═C]
30 | < 100 | < 10 | < 100 | < 100 | CNCc1cc(Nc2ncc(C)c(-c3cnn(CC4(CF)CC4)c3)n2)sn1 [CNCC1═NSC(═C1)NC2═NC(═C]
31 | < 10 | < 10 | < 10 | < 10 | Cc1cnc(Nc2cc(CNC(=O)CCN(C)C)ns2)nc1-c1cnn(CC2(CF)CC2)c1 [CN(C)CCC(═O)NCC1═NSC(═C1)NC2═NC]
32 | < 100 | < 10 | < 10 | < 100 | Cc1cnc(Nc2cccc(CNC(=O)CN(C)C)c2)nc1-c1cnn(CC2(CF)CC2)c1 [CN(C)CC(═O)NCC1═CC═CC(═C1)NC2═NC]
33 | < 1000 | < 10 | < 100 | < 100 | COc1ccc(Nc2ncc(C)c(-c3cnn(CC4(CF)CC4)c3)n2)cn1 [COC1═CC═C(NC2═NC(═C]
34 | < 100 | < 10 | < 10 | < 100 | COC(=O)c1cccc(Nc2ncc(Cl)c(-c3cnn(CCC#N)c3)n2)c1 [COC(═O)C1═CC═CC(═C1)NC2═NC]
35 | < 100 | < 10 | < 10 | < 10 | Cc1cnc(Nc2cc(COC(=O)CCN(C)C)ns2)nc1-c1cnn(CC2(CF)CC2)c1 [CN(C)CCC(═O)OCC1═NSC(═C1)NC2═NC]
36 | < 10 | < 10 | < 10 | < 10 | CNC(=O)c1ccc(Nc2ncc(C)c(-c3cnn(CC4(CF)CC4)c3)n2)cc1 [CNC(═O)C1═CC═C(NC2═NC(═C]

— US20250236611A1, “PYRAZOLE COMPOUNDS AND USES THEREOF” (ALCON INC., priority 2021, published 2025)
